Measured values from paper PMC10829846 (Emerging Microbes & Infections, 2023).

B1: recombinant NDM-1 (Klebsiella pneumoniae) (protein)
chain: MHHHHHHMPGEIRPTIGQQMETGDQRFGDLVFRQLAPNVWQHTSYLDMPGFGAVASNGLIVRDGGRVLVVDTAWTDDQTAQILNWIKQEINLPVALAVVTHAHQDKMGGMDALHAAGIATYANALSNQLAPQEGMVAAQHSLTFAANGWVEPATAPNFGPLKVFYPGPGHTSDNITVGIDGTDIAFGGCLIKDSKAKSLGNLGDADTEHYAASARAFGAAFPKASMIVMSHSAPDSRAAITHTARMADKLR

Columns and labels:
NDM-1 [1] = target: T1, NDM-1 (Klebsiella pneumoniae, UniProt C7C422); assay: Inhibition of NDM-1 hydrolytic activity, enzymatic assay with meropenem; assay type: biochemical; settings: for Restoration of NDM-1 activity by zinc supplementation: 1-fold or 10-fold concentration of Zn^2+; for Inhibitory mode: Lineweaver-Burk plot
EC1864 = assay: Sepsis model; assay type: in vivo, ICR mice; settings: compound oral + meropenem i.v., all 10 mg/kg once daily
NDM-1 [2] = target: T1, NDM-1; settings: cited from earlier work
[3] = system: NDM-1 positive bacteria EC1864; assay: Checkerboard assay with meropenem; assay type: cell-based, Escherichia coli; settings: meropenem alone […]
[4] = substrate: C[C@@H](O)[C@H]1C(=O)N2C(C(=O)O)=C(S[C@@H]3CN[C@H](C(=O)N(C)C)C3)[C@H](C)[C@H]12; assay: purified protein, by the assay type; assay type: biochemical; settings: other: meropenem as substrate of recombinant NDM-1; pH 7.5

Molecule | Restoration of NDM-1 activity by zinc supplementation (NDM-1 [1]) | Inhibitory mode (NDM-1 [1]) | Survival rate of sepsis mice, combination therapy with meropenem (EC1864) | Concentration that completely inhibited NDM-1 activity (NDM-1 [2]) | MIC value of meropenem with sub-MIC concentration of the compound [3] | Km [4] | kcat [4]
O=C(O)CN(CCN(CC(=O)O)CC(=O)O)CC(=O)O [EDTA] | partially or fully restored | non-competitive inhibition | – | – | – | – | –
O=[N+]([O-])c1ccc(O)c2ncccc12 [nitroxoline, 5-nitro-8-hydroxyquinoline] | partially or fully restored | non-competitive inhibition | did not exhibit a protective effect | 30 µM | 8 µg/mL | – | –
B1 | – | – | – | – | – | 54.72 µM | 11.71 s⁻¹
